We go through 5 molecules from patent US11351178B2, “Selective HDAC6 inhibitors” (ITALFARMACO S.P.A., priority 2017, dated 2022).

Structures are written as SMILES. Read-outs that look alike come from different tables or passages of the source.

One data set concerns the target T1, HDAC5 (Homo sapiens, UniProt Q9UQL6).
T1 construct: purchased BPS 50005
Nature of the data set: Enzymatic test HDAC5. Type of data set: biochemical. The conditions noted are these: Table 3. The procedure:
(§1) After a period of incubation at 30° C. (incubation times vary for different isoforms and are shown in table 1) 25 μL of solution containing the substrate were added. As substrate, FLUOR DE LYS® deacetylase substrate (Enzo Life Sciences, cat #BML-K1104, FdL), FLUOR DE LYS®-Green substrate (Enzo Life Sciences, cat #BML-K1572 FdL_G) and trifluoroacetyl-L-lysine (Tfal)-2× concentrated solution in 25 mM Tris-HCl, pH 8, 130 mM NaCl 0.05% Tween-20 10% glycerol) were used. Following a reaction period at 30° C.

Another data set can be described thus: Stability in rat plasma. Format: in vitro ADME. Conditions: after 4 hours, 37° C. A digest of the protocol: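 Compounds incubated at 37° C in rat or human plasma at 50 μM (UV/HPLC) or 1 or 2 μM (LC-MS/MS) for 0–4 h. Reaction stopped with acidified acetonitrile on ice; percent remaining versus initial amount and plasma half-life calculated.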
Another data set addresses T2, HDAC7 (Homo sapiens, UniProt Q8WUI4).
T2 construct: purchased BPS 50007
T2 sequence (Q8WUI4 518-952 limits assumed): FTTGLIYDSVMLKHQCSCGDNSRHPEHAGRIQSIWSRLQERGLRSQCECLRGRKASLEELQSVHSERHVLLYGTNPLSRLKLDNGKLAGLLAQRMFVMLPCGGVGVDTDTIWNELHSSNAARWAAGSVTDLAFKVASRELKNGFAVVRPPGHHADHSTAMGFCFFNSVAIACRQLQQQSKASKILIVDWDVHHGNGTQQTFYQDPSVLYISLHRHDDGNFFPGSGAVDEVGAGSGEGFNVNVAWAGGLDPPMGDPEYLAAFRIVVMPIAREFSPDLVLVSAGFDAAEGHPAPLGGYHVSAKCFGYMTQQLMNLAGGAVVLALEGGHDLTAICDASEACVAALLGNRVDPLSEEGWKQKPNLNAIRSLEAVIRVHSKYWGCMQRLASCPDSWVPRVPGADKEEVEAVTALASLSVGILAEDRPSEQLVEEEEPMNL
Briefly: Enzymatic test HDAC7. Format: biochemical. The conditions noted are these: Table 3. The procedure:
as §1

For a further data set, the target named is T3, HDAC2 (Homo sapiens, UniProt Q92769).
T3 construct: purchased BPS 50002
Briefly: Enzymatic test HDAC2. Format: biochemical. The conditions noted are these: Table 3.

A short description of data set [1]: Stability to Phase I metabolism in rat S9 liver fraction. Format: in vitro ADME. Conditions: after 90 min, 37° C. A digest of the protocol:
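Phase I stability in human and rat hepatic S9 at 37 °C, sampled up to 90 min. Samples were stopped with acidified acetonitrile on ice, then quantified by HPLC-UV or LC-MS/MS.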

The target in another data set is T4, HDAC1 (Homo sapiens, UniProt Q13547).
T4 construct: purchased BPS 50051
Nature of the data set: Enzymatic test HDAC1. Format: biochemical. Conditions: Table 3.

The next data set deals with T5, recombinant human HDAC6 (Homo sapiens, UniProt Q9UBN7).
T5 sequence (Q9UBN7 1-1215): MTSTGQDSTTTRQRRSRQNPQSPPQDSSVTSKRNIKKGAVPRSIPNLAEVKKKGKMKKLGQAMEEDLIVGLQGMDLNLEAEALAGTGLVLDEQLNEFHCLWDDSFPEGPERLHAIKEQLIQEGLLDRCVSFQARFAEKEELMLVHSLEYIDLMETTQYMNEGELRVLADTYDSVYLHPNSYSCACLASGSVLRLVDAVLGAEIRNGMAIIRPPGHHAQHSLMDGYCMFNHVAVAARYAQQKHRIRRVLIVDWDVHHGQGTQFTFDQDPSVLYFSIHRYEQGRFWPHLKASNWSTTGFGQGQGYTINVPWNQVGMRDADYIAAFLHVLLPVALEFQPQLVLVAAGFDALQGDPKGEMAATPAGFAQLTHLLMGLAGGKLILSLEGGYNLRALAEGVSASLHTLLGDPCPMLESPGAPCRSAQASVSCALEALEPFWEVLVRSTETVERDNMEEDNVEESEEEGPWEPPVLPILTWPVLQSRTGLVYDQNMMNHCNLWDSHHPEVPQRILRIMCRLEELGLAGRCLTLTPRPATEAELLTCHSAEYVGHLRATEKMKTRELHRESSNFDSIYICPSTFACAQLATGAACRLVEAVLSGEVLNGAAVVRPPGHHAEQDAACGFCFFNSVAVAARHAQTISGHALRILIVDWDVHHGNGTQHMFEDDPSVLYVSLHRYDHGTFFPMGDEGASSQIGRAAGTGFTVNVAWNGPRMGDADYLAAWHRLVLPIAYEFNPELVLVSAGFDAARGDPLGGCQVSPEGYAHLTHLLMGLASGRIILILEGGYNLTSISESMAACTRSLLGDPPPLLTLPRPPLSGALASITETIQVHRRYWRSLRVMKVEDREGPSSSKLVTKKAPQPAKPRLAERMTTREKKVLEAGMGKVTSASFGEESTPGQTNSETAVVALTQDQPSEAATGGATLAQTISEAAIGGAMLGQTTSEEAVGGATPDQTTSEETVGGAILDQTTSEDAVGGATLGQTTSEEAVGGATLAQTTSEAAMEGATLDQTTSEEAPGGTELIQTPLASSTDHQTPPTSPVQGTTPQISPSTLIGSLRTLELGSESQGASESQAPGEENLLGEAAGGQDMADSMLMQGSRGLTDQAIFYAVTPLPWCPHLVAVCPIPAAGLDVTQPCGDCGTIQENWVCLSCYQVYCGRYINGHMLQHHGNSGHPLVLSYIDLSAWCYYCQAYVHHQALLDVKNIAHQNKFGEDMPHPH
Briefly: Enzymatic screening on recombinant human HDAC6. Conditions: read-out: HDAC6 IC50. Type of data set: biochemical. The method in brief: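 Substrates were Fluor de Lys, Fluor de Lys-Green or trifluoroacetyl-L-lysine, in 25 mM Tris-HCl pH 8, 130 mM NaCl, 0.05% Tween-20, 10% glycerol. They were added after isoform-dependent preincubation of recombinant human enzyme with compound at 30 °C, and the reaction also ran at 30 °C.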

T4 sequence (Q13547 whole entry): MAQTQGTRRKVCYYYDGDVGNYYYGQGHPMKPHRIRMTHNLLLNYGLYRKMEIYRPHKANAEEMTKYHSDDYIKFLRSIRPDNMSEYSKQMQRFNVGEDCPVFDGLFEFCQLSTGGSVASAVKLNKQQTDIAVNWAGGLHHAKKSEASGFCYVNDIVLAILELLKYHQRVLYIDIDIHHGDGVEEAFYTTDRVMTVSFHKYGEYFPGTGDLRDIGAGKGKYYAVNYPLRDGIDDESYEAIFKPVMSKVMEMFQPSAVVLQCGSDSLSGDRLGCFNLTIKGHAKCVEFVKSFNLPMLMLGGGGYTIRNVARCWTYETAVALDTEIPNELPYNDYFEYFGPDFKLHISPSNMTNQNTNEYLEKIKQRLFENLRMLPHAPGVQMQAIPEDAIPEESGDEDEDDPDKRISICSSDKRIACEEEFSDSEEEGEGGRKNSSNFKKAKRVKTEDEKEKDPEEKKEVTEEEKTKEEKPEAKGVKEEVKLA
T3 sequence (Q92769 whole entry): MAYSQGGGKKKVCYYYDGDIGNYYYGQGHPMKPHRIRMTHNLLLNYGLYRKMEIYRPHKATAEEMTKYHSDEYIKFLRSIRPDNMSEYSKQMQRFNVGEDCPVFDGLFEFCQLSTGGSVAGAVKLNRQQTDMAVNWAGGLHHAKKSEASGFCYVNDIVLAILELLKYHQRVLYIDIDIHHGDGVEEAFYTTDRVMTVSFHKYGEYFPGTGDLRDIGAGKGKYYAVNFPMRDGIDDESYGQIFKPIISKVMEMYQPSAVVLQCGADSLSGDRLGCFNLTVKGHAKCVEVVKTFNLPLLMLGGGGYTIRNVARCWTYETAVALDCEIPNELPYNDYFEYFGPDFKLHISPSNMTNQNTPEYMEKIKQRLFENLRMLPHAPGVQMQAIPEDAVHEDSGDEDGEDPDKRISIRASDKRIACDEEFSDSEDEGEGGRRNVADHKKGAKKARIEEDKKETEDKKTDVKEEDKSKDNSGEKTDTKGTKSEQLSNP
T1 sequence (Q9UQL6 656-1122 limits assumed): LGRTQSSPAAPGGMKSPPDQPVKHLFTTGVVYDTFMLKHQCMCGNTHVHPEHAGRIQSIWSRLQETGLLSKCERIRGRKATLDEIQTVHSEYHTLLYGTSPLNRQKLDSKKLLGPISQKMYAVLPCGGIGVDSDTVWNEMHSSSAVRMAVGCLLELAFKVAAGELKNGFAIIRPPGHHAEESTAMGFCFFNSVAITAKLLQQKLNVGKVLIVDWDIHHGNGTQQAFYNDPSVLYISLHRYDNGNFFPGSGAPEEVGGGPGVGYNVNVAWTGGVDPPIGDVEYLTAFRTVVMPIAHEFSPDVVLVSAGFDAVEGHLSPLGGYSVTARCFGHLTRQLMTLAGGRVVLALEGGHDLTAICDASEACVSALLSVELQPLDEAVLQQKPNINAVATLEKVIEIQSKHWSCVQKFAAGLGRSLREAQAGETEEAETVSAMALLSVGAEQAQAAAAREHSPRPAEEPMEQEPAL

Regarding `O=C(NO)c1cc(F)c(Cn2nnnc2-c2ccccn2)c(F)c1` [comp. 13, 3,5-difluoro-N-hydroxy-4-((5-(pyridin-2-yl)-1H-tetrazol-1-yl)methyl)benzamide], the half-maximal inhibitory concentration (IC50) (commonly the concentration that gives 50% inhibition) against HDAC5 was 512 nM; against HDAC7, 623 nM; against HDAC2 it was 11400 nM; at HDAC1, 2890 nM; at recombinant human HDAC6 (Table 2), 4 nM; at recombinant human HDAC6 (Table 3) it was 4 nM. The “residual percentage in rat plasma” value in “Stability in rat plasma” came out at 96.7%. Besides, in data set [1], the “residual percentage in rat S9 fraction” value came out at 90.9%.
For `Cc1cc(-c2nnc(Sc3ccc(C(=O)NO)cc3)n2C)nn1C` [comp. 85, 4-[[5-(1,5-dimethylpyrazol-3-yl)-4-methyl-1,2,4-triazol-3-yl]sulfanyl]benzenecarbohydroxamic acid], the IC50 was 559 nM against HDAC5; 514 nM against HDAC7; 1700 nM against HDAC2; 469 nM on HDAC1; 5 nM at recombinant human HDAC6 (Table 2); 5 nM on recombinant human HDAC6 (Table 3). Moreover, in “Stability in rat plasma”, the “residual percentage in rat plasma” value was 76%. Besides, in data set [1], the “residual percentage in rat S9 fraction” value is 75%.
Consider `CCN(CC)S(=O)(=O)c1cccc(-c2nnc(Sc3ccc(C(=O)NO)cc3)n2C)c1` [comp. 66, 4-[[5-[3-(diethylsulfamoyl)phenyl]-4-methyl-1,2,4-triazol-3-yl]sulfanyl]benzenecarbohydroxamic acid], for which the IC50 on HDAC5 amounted to 325 nM; against HDAC7 it was 214 nM; against HDAC2, 1040 nM; against HDAC1, 747 nM; on recombinant human HDAC6 (Table 2), 6 nM; at recombinant human HDAC6 (Table 3), 6 nM. The “residual percentage in rat plasma” value in “Stability in rat plasma” worked out at 66%. The “residual percentage in rat S9 fraction” value in data set [1] came to 54%.
Turning to `O=C(NO)c1ccc(Cn2nnc(-c3ccc(C(F)(F)F)cc3)n2)cc1` [comp. 23, 4-[[5-[4-(trifluoromethyl)phenyl]tetrazol-2-yl]methyl]benzenecarbohydroxamic acid], the half-inhibitory concentration (IC50) was found to be 4810 nM on HDAC5; 6670 nM against HDAC7; 2030 nM against HDAC2; 616 nM against HDAC1; 11 nM at recombinant human HDAC6 (Table 2); 11 nM on recombinant human HDAC6 (Table 3). Also, the “residual percentage in rat plasma” value in “Stability in rat plasma” worked out at 77%. Besides, the “residual percentage in rat S9 fraction” value in data set [1] came to 8%.
As for `CCN(CC)S(=O)(=O)c1cccc(-c2nnc(Sc3ccc(C(=O)NO)cc3)n2N)c1` [comp. 61, 4-[[4-amino-5-[3-(diethylsulfamoyl)phenyl]-1,2,4-triazol-3-yl]sulfanyl]benzenecarbohydroxamic acid], the IC50 against HDAC5 amounted to 2510 nM; against HDAC7, 529 nM; on HDAC2 it was 6910 nM; at HDAC1, 495 nM; at recombinant human HDAC6 (Table 2) it was 9 nM; on recombinant human HDAC6 (Table 3), 9 nM. In “Stability in rat plasma”, the “residual percentage in rat plasma” value is 71%. Further, the “residual percentage in rat S9 fraction” value in data set [1] is recorded as 49%.
